Biological target: WRN helicase (Homo sapiens, UniProt Q14191)
Assay: WRN helicase hydrolysis/unwinding of double-stranded DNA (fluorescence)
Assay type: biochemical
Procedure, shortened: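 Human WRN helicase preincubated 30 min in the dark with compound (top final concentration 10 μM, 4-fold dilutions). Reaction started with 19-bp double-stranded DNA labelled 3′-TAMRA/5′-BHQ2, run 60 min at room temperature; IC50 from fluorescence change (Ex530/Em590) versus DMSO blank.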

Chain of WRN helicase (Q14191 whole entry): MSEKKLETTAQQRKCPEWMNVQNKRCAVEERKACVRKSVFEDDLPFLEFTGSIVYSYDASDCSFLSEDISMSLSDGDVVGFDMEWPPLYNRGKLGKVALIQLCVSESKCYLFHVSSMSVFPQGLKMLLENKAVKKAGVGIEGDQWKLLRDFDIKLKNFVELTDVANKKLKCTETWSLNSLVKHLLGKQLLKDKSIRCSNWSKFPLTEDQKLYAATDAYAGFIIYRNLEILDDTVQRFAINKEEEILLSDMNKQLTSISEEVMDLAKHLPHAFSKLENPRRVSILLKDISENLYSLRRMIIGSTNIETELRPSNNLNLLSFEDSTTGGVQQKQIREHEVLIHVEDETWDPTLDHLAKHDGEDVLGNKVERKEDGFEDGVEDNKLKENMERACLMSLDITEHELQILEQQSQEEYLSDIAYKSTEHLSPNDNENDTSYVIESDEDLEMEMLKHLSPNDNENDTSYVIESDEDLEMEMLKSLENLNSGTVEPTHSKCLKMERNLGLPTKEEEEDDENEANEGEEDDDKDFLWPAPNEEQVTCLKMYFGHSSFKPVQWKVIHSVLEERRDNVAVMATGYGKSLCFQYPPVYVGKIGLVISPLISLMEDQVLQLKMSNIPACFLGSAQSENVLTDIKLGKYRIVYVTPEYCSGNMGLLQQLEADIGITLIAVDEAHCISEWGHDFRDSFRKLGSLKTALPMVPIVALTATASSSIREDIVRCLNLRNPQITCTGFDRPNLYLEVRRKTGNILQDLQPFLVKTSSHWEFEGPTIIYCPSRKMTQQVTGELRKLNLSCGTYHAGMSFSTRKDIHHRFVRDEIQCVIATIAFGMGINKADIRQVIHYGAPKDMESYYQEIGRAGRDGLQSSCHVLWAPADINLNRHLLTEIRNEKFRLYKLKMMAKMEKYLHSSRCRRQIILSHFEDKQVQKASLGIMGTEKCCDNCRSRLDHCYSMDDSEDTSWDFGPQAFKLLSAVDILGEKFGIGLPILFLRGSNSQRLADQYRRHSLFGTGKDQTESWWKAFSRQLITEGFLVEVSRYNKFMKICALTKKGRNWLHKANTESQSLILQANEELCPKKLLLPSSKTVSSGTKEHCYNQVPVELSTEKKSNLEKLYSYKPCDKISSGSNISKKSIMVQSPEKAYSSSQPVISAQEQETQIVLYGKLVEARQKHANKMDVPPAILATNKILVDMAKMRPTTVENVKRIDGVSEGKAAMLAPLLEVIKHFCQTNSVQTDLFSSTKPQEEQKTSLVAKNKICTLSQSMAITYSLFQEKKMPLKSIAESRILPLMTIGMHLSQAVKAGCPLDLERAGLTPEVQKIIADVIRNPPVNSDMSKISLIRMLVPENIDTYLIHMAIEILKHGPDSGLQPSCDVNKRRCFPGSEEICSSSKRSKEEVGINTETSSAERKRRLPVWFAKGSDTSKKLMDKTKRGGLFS

CCc1c(N2CCN(C(=O)c3ncnc(C)c3O)CC2)c(=O)n2nc(C3=CCOCC3)nc2n1CC(=O)Nc1ccc(C(F)(F)F)c2ccoc12 [Compound H22] showed an IC50 of 1.4 nM.

— patent US20260216197A1, “WRN HELICASE INHIBITOR” (SUZHOU PUHE BIOPHARMA CO., LTD., priority 2022, published 2026)
